Laboratory results as given in patent US20050245463A1, “Novel antiretroviral sulfolipids extracted from spirulinae, method for obtaining same, compositions containing same and use thereof as inhibitors of the hiv virus reverse transcriptase” (priority 2002, published 2005).
≈ marks a conversion by molar mass, not a printed value.

Tests used:
Assay type in all cases: biochemical
[1] = target: T1, DNA polymerase of HIV-1 reverse transcriptase (Human immunodeficiency virus type 1 group M subtype B, UniProt P03366); assay: Inhibition of the DNA polymerase of HIV-1 reverse transcriptase; conditions: for IC50: concentration that inhibits 50% of the initial enzymatic activity; for IC90: concentration that inhibits 90% of the initial enzymatic activity; for inhibitory activity towards the DNA polymerase of HIV-1 reverse transcriptase (in words): ranking among molecular species
T1 construct: The HIV-1 and HIV-2 reverse transcriptases are the hetero-dimers p.66/p.5 l and p.68/p.55, respectively; made in house; host or cells: E. coli
Protocol: (§1) The reverse transcriptases used in this study are the recombinant enzymes expressed in E. coli and purified from the bacterial extracts (16). The HIV-1 reverse transcriptase expression plasmid originates from the proviral isolate BH-10 (17), while the HIV-2 reverse transcriptase expression plasmid originates from the isolate pRod (18). The HIV-1 and HIV-2 reverse transcriptases are the hetero-dimers p.66/p.5 l and p.68/p.55, respectively.
(§2) The enzymatic tests are performed by the method of Loya et al. (19). The DNA polymerase activity is measured by monitoring the incorporation of […] into the product insoluble in trichloroacetic acid (TCA), in the presence of different concentrations of sulfolipids. The RNase-H activity is measured by measuring the delivery of the TCA-soluble product from the synthetic substrate [^3H]poly(rA)n.poly (dT)n. This substrate is prepared by the procedure of Hizi et al. (1991) (20). In all the inhibition experiments, the enzymes are preincubated for 5 min at 30° C. in the absence or presence of inhibitors at different concentrations. The enzymatic reactions are started by the addition of appropriate substrate at 37° C. for 30 min.
(§3) The residual enzymatic activity is calculated relative to the initial rates of the (linear) reaction observed in the absence of sulfolipids.
The concentration of inhibitors that leads to 50% inhibition of the enzymatic activities (IC50) is calculated from the curves of inhibition as a function of inhibitor (sulfolipid) concentration.
(§4) (a) One unit of DNA polymerase activity is the amount of enzyme which catalyzes the incorporation of one pmol of dNTP into the DNA product at 37° C. over 30 min under standard test conditions.

[2] = target: T2, RNase-H of HIV-1 reverse transcriptase (Human immunodeficiency virus type 1 group M subtype B, UniProt P03366); assay: Inhibition of the RNase-H of HIV-1 reverse transcriptase; conditions: for RNase-H % of initial enzymatic activity: 100 μM of each sulfolipid molecular species, residual activity as % of control without inhibitor; for inhibition of the RNase-H of HIV-1 reverse transcriptase (in words): ranking among molecular species
T2 construct: The HIV-1 and HIV-2 reverse transcriptases are the hetero-dimers p.66/p.5 l and p.68/p.55, respectively; made in house; host or cells: E. coli
Protocol: as §1, §2, §3
(b) One unit of RNase-H activity is the amount of enzyme which catalyzes the hydrolysis of one pmol of AMP at 37° C. over 30 min under standard test conditions.

[3] = target: T3, DNA polymerase activity of HIV-2 reverse transcriptase (Human immunodeficiency virus type 2 subtype A, UniProt P04584); assay: DNA polymerase activity of HIV-2 reverse transcriptase
T3 construct: The HIV-1 and HIV-2 reverse transcriptases are the hetero-dimers p.66/p.5 l and p.68/p.55, respectively; made in house; host or cells: E. coli
T3 sequence (P04584 613-1051): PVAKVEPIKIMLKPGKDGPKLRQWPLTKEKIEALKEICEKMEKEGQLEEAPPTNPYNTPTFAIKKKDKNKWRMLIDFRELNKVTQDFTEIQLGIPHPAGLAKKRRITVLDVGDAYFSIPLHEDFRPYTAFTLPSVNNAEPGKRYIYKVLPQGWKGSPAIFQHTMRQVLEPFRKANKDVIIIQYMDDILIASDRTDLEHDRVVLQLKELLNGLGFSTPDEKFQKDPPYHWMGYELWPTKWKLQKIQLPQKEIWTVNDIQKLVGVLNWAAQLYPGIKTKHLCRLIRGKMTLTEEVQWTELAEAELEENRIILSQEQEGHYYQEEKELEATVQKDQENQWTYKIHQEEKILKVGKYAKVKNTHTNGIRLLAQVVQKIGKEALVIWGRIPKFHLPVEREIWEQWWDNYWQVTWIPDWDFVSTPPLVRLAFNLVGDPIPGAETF
T3 sequence (P04584 613-1171): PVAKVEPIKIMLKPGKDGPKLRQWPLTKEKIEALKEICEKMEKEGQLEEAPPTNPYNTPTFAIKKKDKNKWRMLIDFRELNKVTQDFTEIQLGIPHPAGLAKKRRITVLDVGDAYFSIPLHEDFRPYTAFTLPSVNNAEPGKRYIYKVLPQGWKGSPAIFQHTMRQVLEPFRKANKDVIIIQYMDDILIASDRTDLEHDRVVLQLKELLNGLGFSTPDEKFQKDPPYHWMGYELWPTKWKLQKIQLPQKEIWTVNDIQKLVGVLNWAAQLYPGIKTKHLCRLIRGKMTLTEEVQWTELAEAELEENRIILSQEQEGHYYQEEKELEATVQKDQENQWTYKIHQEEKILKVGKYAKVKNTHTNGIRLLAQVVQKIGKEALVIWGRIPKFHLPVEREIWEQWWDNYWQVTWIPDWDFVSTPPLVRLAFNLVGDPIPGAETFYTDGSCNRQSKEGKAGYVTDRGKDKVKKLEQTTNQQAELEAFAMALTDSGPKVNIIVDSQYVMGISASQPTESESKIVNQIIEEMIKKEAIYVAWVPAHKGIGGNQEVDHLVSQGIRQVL
Protocol: as §1, §2, §3, §4

SMILES	IC50 [1]	IC90 [1]	RNase-H % of initial enzymatic activity [2]	inhibition of the RNase-H of HIV-1 reverse transcriptase (in words) [2]	inhibitory activity towards the DNA polymerase of HIV-1 reverse transcriptase (in words) [1]	inhibitory activity towards the DNA polymerase activity of HIV-2 reverse transcriptase (in words) [3]	also measured
CCCCCCCCCCCCCCCC(=O)OCC(COC1OC(CS(=O)(=O)O)C(O)C(O)C1O)OC(=O)CCCCCCCCCCCCCCC (stereo not shown) [C16:0/C16:0]	133 µM	452 µg/mL (≈ 568 µM)	47 + 4%	highest activities			
CCCCCCC=CCCCCCCCC(=O)OCC(COC1OC(CS(=O)(=O)O)C(O)C(O)C1O)OC(=O)CCCCCCCCCCCCCCC (stereo not shown) [C16:1/C16:0]	110 µM	302 µg/mL (≈ 381 µM)	42 + 3%	highest activities			Residual enzymatic activity (%) ([3]; 10.2 + 0.5 μg/ml): 100 + 1%; Residual enzymatic activity (%) ([3]; 25.0 + 0.6 μg/ml): 96 + 1%; Residual enzymatic activity (%) ([3]; 48.9 + 0.9 μg/ml): 69 + 1%; Residual enzymatic activity (%) ([3]; 97.5 + 1.5 μg/ml): 58 + 2%; Residual enzymatic activity (%) ([3]; 108.0 + 3.0 μg/ml): 50 + 1%; Residual enzymatic activity (%) ([3]; 198.5 + 3.4 μg/ml): 24 + 2%
CCCCCCCCC=CCCCCCCCC(=O)OCC(COC1OC(CS(=O)(=O)O)C(O)C(O)C1O)OC(=O)CCCCCCCCCCCCCCC (stereo not shown) [C18:1/C16:0]	29.1 µM	73.6 µg/mL (≈ 89.6 µM)	64 + 6%	highest activities	highest activities	have an inhibitory activity	Residual enzymatic activity (%) ([3]; 4.8 + 0.9 μg/ml): 100 + 1%; Residual enzymatic activity (%) ([3]; 9.6 + 0.9 μg/ml): 93 + 2%; Residual enzymatic activity (%) ([3]; 19.1 + 0.9 μg/ml): 74 + 2%; Residual enzymatic activity (%) ([3]; 33.5 + 2.0 μg/ml): 50 + 1%; Residual enzymatic activity (%) ([3]; 38.3 + 1.8 μg/ml): 42 + 2%; Residual enzymatic activity (%) ([3]; 76.5 + 2.0 μg/ml): 24 + 2%
CCCCCCCCC=CCCCCCCCC(=O)OCC(COC1OC(CS(=O)(=O)O)C(O)C(O)C1O)OC(=O)CCCCCCCC=CCCCCCCCC (stereo not shown) [C18:1/C18:1]	23.7 µM	68.3 µg/mL (≈ 80.6 µM)	60 + 2%	highest activities	highest activities	the highest	Residual enzymatic activity (%) ([3]; 4.0 + 0.5 μg/ml): 100 + 1%; Residual enzymatic activity (%) ([3]; 8.0 + 0.6 μg/ml): 92 + 1%; Residual enzymatic activity (%) ([3]; 16.0 + 0.7 μg/ml): 70 + 2%; Residual enzymatic activity (%) ([3]; 26.1 + 1.8 μg/ml): 50 + 1%; Residual enzymatic activity (%) ([3]; 36.0 + 1.0 μg/ml): 35 + 1%; Residual enzymatic activity (%) ([3]; 71.9 + 1.0 μg/ml): 22 + 2%
CCCCCC=CCC=CCCCCCCCC(=O)OC(COC(=O)CCCCCCCC=CCCCCCCCC)COC1OC(CS(=O)(=O)O)C(O)C(O)C1O (stereo not shown) [C18:1/C18:2]	248 µM	628 µg/mL (≈ 743 µM)	100%				
CCCCCC=CCC=CCCCCCCCC(=O)OCC(COC1OC(CS(=O)(=O)O)C(O)C(O)C1O)OC(=O)CCCCCCCCCCCCCCC (stereo not shown) [C18:2/C16:0]	92 µM	281 µg/mL (≈ 344 µM)	100%		highest activities	have an inhibitory activity	Residual enzymatic activity (%) ([3]; 9.5 + 0.9 μg/ml): 100 + 1%; Residual enzymatic activity (%) ([3]; 23.8 + 0.9 μg/ml): 96 + 2%; Residual enzymatic activity (%) ([3]; 47.7 + 1.8 μg/ml): 70 + 2%; Residual enzymatic activity (%) ([3]; 95.4 + 2.0 μg/ml): 56 + 2%; Residual enzymatic activity (%) ([3]; 105.0 + 5.0 μg/ml): 50 + 1%; Residual enzymatic activity (%) ([3]; 190.8 + 4.8 μg/ml): 25 + 2%
CCCCCC=CCC=CCCCCCCCC(=O)OCC(COC1OC(CS(=O)(=O)O)C(O)C(O)C1O)OC(=O)CCCCCCCC=CCCCCCCCC (stereo not shown) [C18:2/C18:1]	297 µM	753 µg/mL (≈ 891 µM)	100%				
CCCCCC=CCC=CCCCCCCCC(=O)OCC(COC1OC(CS(=O)(=O)O)C(O)C(O)C1O)OC(=O)CCCCCCCC=CCC=CCCCCC (stereo not shown) [C18:2/C18:2]	331 µM	840 µg/mL (≈ 996 µM)	100%				
CCCCCC=CCC=CCC=CCCCCC(=O)OCC(COC1OC(CS(=O)(=O)O)C(O)C(O)C1O)OC(=O)CCCCCCCCCCCCCCC (stereo not shown) [γC18:3/C16:0]	218 µM	533 µg/mL (≈ 652 µM)	100%				
